This note sets out measurements from ChEMBL document CHEMBL3044812, “QSAR analysis of Mur B inhibitors with antibacterial properties discussing role of physico-chemical parameters” (Med Chem Res, 2011).

The structures appear in SMILES notation.

This test can be described thus: Inhibition of Escherichia coli murB-mediated eduction of enolpyruvyl uridine diphosphate N-acetylglucosamine to uridine diphosphate N-acetyl muramic acid.
One may read the pIC50 as −log10 of the IC50, conventionally taken in molar units. The low end stands for a large IC50, the high end for a small IC50. For the compound `O=C(CCc1ccccc1)c1c(O)n(-c2ccc(Cl)cc2)n(-c2ccc(Cl)cc2)c1=O`, the pIC50 stood at 5.018.
For `O=C(Nc1ccccc1)c1c(O)n(-c2ccccc2)n(-c2ccccc2)c1=O` the value was 4.268; for `O=C(c1cccc(C(F)(F)F)c1)c1c(O)n(-c2ccc(Cl)cc2)n(-c2ccc(Cl)cc2)c1=O`, 5.26; for `COc1ccc(CC(=O)c2c(O)n(-c3ccc(Cl)cc3)n(-c3ccc(Cl)cc3)c2=O)cc1`, 4.398.
As for `O=C(Nc1ccc(Cl)c(Cl)c1)c1c(O)n(-c2ccc(Cl)cc2)n(-c2ccc(Cl)cc2)c1=O`, the pIC50 was found to be 4.886.
Consider `O=C(Nc1ccc(Cl)cc1)c1c(O)n(-c2ccccc2)n(-c2ccccc2)c1=O`, for which the pIC50 is given as 4.268.
Regarding `O=C(c1ccc(C(F)(F)F)cc1)c1c(O)n(-c2ccc(Cl)cc2)n(-c2ccc(Cl)cc2)c1=O`, the negative logarithm of the IC50 (pIC50) is recorded as 4.824.
For the compound `O=C(c1c(O)n(-c2ccc(Cl)cc2)n(-c2ccc(Cl)cc2)c1=O)C1CCCCC1`, the pIC50 is listed as 4.62.
As for `CC(C(=O)c1c(O)n(-c2ccc(Cl)cc2)n(-c2ccc(Cl)cc2)c1=O)c1ccc(Br)cc1` (stereo not drawn), the pIC50 stood at 5.252.
As for `O=C(Nc1ccc(Cl)cc1)c1c(O)n(-c2cccc(Cl)c2)n(-c2cccc(Cl)c2)c1=O`, the pIC50 is reported as 5.066.
In the case of `O=C(c1ccccc1)c1c(O)n(-c2ccc(Cl)cc2)n(-c2ccc(Cl)cc2)c1=O`, the pIC50 worked out at 5.009.
The compound `COc1ccc(C(=O)c2c(O)n(-c3ccc(Cl)cc3)n(-c3ccc(Cl)cc3)c2=O)cc1` displayed a pIC50 of 4.796.
For `COc1ccc(NC(=O)c2c(O)n(-c3ccc(Cl)cc3)n(-c3ccc(Cl)cc3)c2=O)cc1` the value was 5.
`O=C(c1ccc(Cl)cc1)c1c(O)n(-c2ccc(Cl)cc2)n(-c2ccc(Cl)cc2)c1=O` yielded a pIC50 of 4.863.
For `N#Cc1ccc(C(=O)c2c(O)n(-c3ccc(Cl)cc3)n(-c3ccc(Cl)cc3)c2=O)cc1`, the pIC50 was determined as 4.882.
`O=C(c1cccc(Cl)c1)c1c(O)n(-c2ccc(Cl)cc2)n(-c2ccc(Cl)cc2)c1=O`: the pIC50 amounted to 5.229.
Take `O=C(Nc1ccc(C(F)(F)F)cc1)c1c(O)n(-c2cccc(Cl)c2)n(-c2cccc(Cl)c2)c1=O`: the pIC50 is 5.061.
On to `O=C(Nc1ccc(Br)cc1)c1c(O)n(-c2ccccc2)n(-c2ccccc2)c1=O`, for which the pIC50 came out at 4.377.
On to `O=C(Nc1ccc(Cl)c(Cl)c1)c1c(O)n(-c2ccc(Cl)c(Cl)c2)n(-c2ccc(Cl)c(Cl)c2)c1=O`, for which the pIC50 came out at 5.319.
The same measure for `O=C(c1cccs1)c1c(O)n(-c2ccc(Cl)cc2)n(-c2ccc(Cl)cc2)c1=O`: 5.237; for `O=C(c1ccc(O)cc1)c1c(O)n(-c2ccc(Cl)cc2)n(-c2ccc(Cl)cc2)c1=O`: 4.66; for `CCCCOc1ccc(C(=O)c2c(O)n(-c3ccc(Cl)cc3)n(-c3ccc(Cl)cc3)c2=O)cc1`: 5.347.
`CCOC(=O)c1cccc(C(=O)c2c(O)n(-c3ccc(Cl)cc3)n(-c3ccc(Cl)cc3)c2=O)c1` came in with a pIC50 of 4.754.
Consider `O=C(Nc1ccc(Cl)cc1)c1c(O)n(-c2ccc(Cl)cc2)n(-c2ccc(Cl)cc2)c1=O`, for which the pIC50 is on record as 4.959.
The compound `O=C(c1ccc(OC(F)(F)F)cc1)c1c(O)n(-c2ccc(Cl)cc2)n(-c2ccc(Cl)cc2)c1=O` displayed a pIC50 of 5.268.
`O=C(c1ccc(-c2ccccc2)cc1)c1c(O)n(-c2ccc(Cl)cc2)n(-c2ccc(Cl)cc2)c1=O` returned a pIC50 of 5.215.
Consider `Cc1ccc(NC(=O)c2c(O)n(-c3ccc(Cl)c(Cl)c3)n(-c3ccc(Cl)c(Cl)c3)c2=O)cc1`, for which the pIC50 stood at 5.319. This pIC50 and that of the compound before are within 0.2 log units of each other.
`O=C(c1ccccc1Cl)c1c(O)n(-c2ccc(Cl)cc2)n(-c2ccc(Cl)cc2)c1=O` returned a pIC50 of 4.914.
